What was measured:
AhR response element = assay: Multiplexed Gluc-tag reporter assay, AhR response element; format: cell-based
Description: (§1) Two separate detection assays were conducted to check the profile of FCICC (6-Formylindolo [3, 2-b] carbazole Indolo [3,2-b] carbazole-6-carboxaldehyde-5, 11-dihydro, an AhR response element inducer, commercially available from Biomol, Plymouth Meeting, Pa.) and IL-1β and TNF-α (NF-κB response element inducer).
(§2) Purified Antibodies were diluted in DPBS with 5% glycerol at 5 μg/ml concentration. […] of diluted antibody solutions were dispensed onto wells of a […] 600 plate (Greiner Bio-One, Monroe, N.C.), and the plate was tapped gently to distribute the antibody solutions evenly on the bottom of the well. The plate was sealed tightly with a PCR sealing film. The antibody plate was stored at 4° C. for one week for antibodies to bind.
At the end of incubation, 200 μl of Blocking Reagent (Attagene, Research Triangle Park, N.C.) was added to the wells to block the unbounded surface, either for 1 hour at room temperature for quick use, or at 4° C. overnight. The plate was washed 4 times with DPBS (Invitrogen, Carlsbad, Calif.) by flicking the solution out into a waste container and then blotted dry briefly on layers of paper towel. […]
(§3) After the incubation, samples were removed by gently flicking and the plate was washed 4 times with DPBS as above. […] The reading was normalized against the minimal promoter driven reporter.

CRE = assay: Multiplexed Gluc-tag reporter assay, CRE; format: cell-based; settings: twelve response elements/Gluc tags, four assays (FIG. 8)
Description: as §2
(§4) At the end of incubation, 200 μl of Blocking Reagent (Attagene, Research Triangle Park, N.C.) was added to the wells to block the unbounded surface, either for 1 hour at room temperature for quick use, or at 4° C. overnight. The plate was washed 4 times with DPBS (Invitrogen, Carlsbad, Calif.) by flicking the solution out into a waste container and then blotted dry briefly on layers of paper towel. Target samples were diluted in Binding Reagent (Attagene, Inc., Research Triangle Park, N.C.). After the washing, 100 μl of diluted testing samples were added to the well and incubated at RT for 1 hour with gentle rocking agitation.
as §3

[1] = Stability of coelenterazine substrate in assay reagents; format: physicochemical; settings: over 70 minutes after dilution from methanol stock into assay reagents
Description: It is well known that coelenterazine is not stable in aqueous solutions. FIGS. 3C and 3D show the stability profiles of coelenterazine substrate in different assay reagents after being diluted from its methanol stock. A solution of Gluc enzyme was injected at different time points into substrates that were prepared at the same time. The overall signal strength decreased about ten times over 70 minutes and there was no significant difference among these buffers in the stability of the substrate. Once again, the Attagene reagent provided better sensitivity and stronger RLU output.

NF-κB response element = assay: Multiplexed Gluc-tag reporter assay, NF-κB response element; format: cell-based
Description: as §1, §2, §4, §3

[2] = seven antibodies on 96-well plate, two separate detection assays (FIGS. 7A, 7B)
[3] = twelve response elements/Gluc tags, four assays (FIG. 8)

Q: With O=Cc1c2[nH]c3ccccc3c2cc2c1[nH]c1ccccc12 [FCICC, 6-Formylindolo [3,2-b] carbazole Indolo [3,2-b] carbazole-6-carboxaldehyde-5, 11-dihydro] as the molecule, how does the “induction of AhR” value (AhR response element; [2]) read?
A: specific induction

Q: What about the “induction of AhR” value (AhR response element; [3]) of the same molecule?
A: specific induction

Q: With C=C[C@@]1(C)CC(=O)[C@]2(O)[C@@]3(C)[C@@H](O)CCC(C)(C)[C@@H]3[C@H](O)[C@H](OC(C)=O)[C@@]2(C)O1 [FSK] as the molecule, how does the “induction of CRE” value (CRE) read?
A: specific induction

Q: With Oc1ccc(Cc2nc3c(Cc4ccccc4)nc(-c4ccc(O)cc4)cn3c2O)cc1 [coelenterazine] as the molecule, how does the “decrease of overall signal strength” value [1] read?
A: about ten

Q: What does the source list for IL-1β: NF-κB response element inducer?
A: induction of NF-κB (NF-κB response element; [2]): specific induction; induction of NF-κB (NF-κB response element; [3]): specific induction

Q: With TNF-α as the molecule, how does the “induction of NF-κB” value (NF-κB response element; [2]) read?
A: specific induction

Q: And the “induction of NF-κB” value (NF-κB response element; [3])?
A: specific induction

From patent US10544472B2, “Multiplexing transcription factor reporter protein assay process and system” (Attagene, Inc., priority 2014, dated 2020)
